Laboratory results: ChEMBL document CHEMBL6120977, “Structure-Affinity-Pharmacokinetics Relationships of Novel 18F-Labeled 1,4-Diazepane Derivatives for Orexin 1 Receptor Imaging” (J Med Chem, 2024)
pKi: −log10 of the molar value.

Legend:
[1] = biological target: T1, Orexin receptor type 2 (Homo sapiens, UniProt O43614); experiment: Displacement of […]5IBOM from OX2R (unknown origin) transfected in CHO cells assessed as inhibition constant incubated for 1.5 hrs by automated gamma-counter analysis; assay type: cell-based
T1 sequence (O43614 whole entry): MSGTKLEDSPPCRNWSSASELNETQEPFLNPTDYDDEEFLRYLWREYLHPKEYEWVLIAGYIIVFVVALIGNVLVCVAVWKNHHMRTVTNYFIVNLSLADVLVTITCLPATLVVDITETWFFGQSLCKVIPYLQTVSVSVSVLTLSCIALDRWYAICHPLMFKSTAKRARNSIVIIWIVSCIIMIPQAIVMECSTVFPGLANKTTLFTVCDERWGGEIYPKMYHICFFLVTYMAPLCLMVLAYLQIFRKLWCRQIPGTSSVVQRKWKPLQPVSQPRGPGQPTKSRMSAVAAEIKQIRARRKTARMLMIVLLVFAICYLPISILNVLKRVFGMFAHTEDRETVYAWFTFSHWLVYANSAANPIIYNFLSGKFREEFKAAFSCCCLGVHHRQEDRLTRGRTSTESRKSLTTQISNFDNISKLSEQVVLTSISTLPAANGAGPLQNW

[2] = biological target: T2, Orexin/Hypocretin receptor type 1 (Homo sapiens, UniProt O43613); experiment: Displacement of […]5IBOM from OX1R (unknown origin) transfected in CHO cells assessed as inhibition constant incubated for 1.5 hrs by automated gamma-counter analysis; assay type: cell-based
T2 sequence (O43613 whole entry): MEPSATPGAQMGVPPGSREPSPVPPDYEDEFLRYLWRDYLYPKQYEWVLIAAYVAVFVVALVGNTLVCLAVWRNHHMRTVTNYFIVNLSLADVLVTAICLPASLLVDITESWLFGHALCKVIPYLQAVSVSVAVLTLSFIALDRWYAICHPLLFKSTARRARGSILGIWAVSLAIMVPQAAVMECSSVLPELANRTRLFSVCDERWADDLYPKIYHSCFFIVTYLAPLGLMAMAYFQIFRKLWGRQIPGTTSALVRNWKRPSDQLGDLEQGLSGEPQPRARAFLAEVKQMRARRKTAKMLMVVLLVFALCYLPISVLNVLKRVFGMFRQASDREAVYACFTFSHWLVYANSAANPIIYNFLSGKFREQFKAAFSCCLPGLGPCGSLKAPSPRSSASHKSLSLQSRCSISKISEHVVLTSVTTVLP

[3] = Selectivity ratio of Ki for OX2R (unknown origin) transfected in CHO cells to Ki for OX1R (unknown origin) transfected in CHO cells; assay type: cell-based
[4] = Biodistribution in male ddY mouse liver administered intravenously and measured at 60 mins postinjection by gamma counter analysis; assay type: ADME, organism-based; conditions: in vivo, iv, 1 h
[5] = Biodistribution in male ddY mouse stomach administered intravenously and measured per organ at 2 mins postinjection by gamma counter analysis; assay type: ADME, organism-based; conditions: in vivo, iv
[6] = Biodistribution in male ddY mouse heart administered intravenously and measured at 60 mins postinjection by gamma counter analysis; assay type: ADME, organism-based; conditions: in vivo, iv, 1 h
[7] = Biodistribution in male ddY mouse lung administered intravenously and measured at 60 mins postinjection by gamma counter analysis; assay type: ADME, organism-based; conditions: in vivo, iv, 1 h
[8] = Biodistribution in male ddY mouse lung administered intravenously and measured at 30 mins postinjection by gamma counter analysis; assay type: ADME, organism-based; conditions: in vivo, iv, 0.5 h
[9] = Biodistribution in male ddY mouse brain administered intravenously and measured at 10 mins postinjection by gamma counter analysis; assay type: ADME, organism-based; conditions: in vivo, iv
[10] = Biodistribution in male ddY mouse liver administered intravenously and measured at 10 mins postinjection by gamma counter analysis; assay type: ADME, organism-based; conditions: in vivo, iv
[11] = Biodistribution in male ddY mouse pancreas administered intravenously and measured at 30 mins postinjection by gamma counter analysis; assay type: ADME, organism-based; conditions: in vivo, iv, 0.5 h
[12] = Biodistribution in male ddY mouse brain administered intravenously and measured at 60 mins postinjection by gamma counter analysis; assay type: ADME, organism-based; conditions: in vivo, iv, 1 h
[13] = Biodistribution in male ddY mouse bone administered intravenously and measured at 30 mins postinjection by gamma counter analysis; assay type: ADME, organism-based, Bone element; conditions: in vivo, iv, 0.5 h
[14] = Biodistribution in male ddY mouse pancreas administered intravenously and measured at 10 mins postinjection by gamma counter analysis; assay type: ADME, organism-based; conditions: in vivo, iv
[15] = Biodistribution in male ddY mouse spleen administered intravenously and measured at 10 mins postinjection by gamma counter analysis; assay type: ADME, organism-based; conditions: in vivo, iv
[16] = Biodistribution in male ddY mouse kidney administered intravenously and measured at 2 mins postinjection by gamma counter analysis; assay type: ADME, organism-based; conditions: in vivo, iv
[17] = Biodistribution in male ddY mouse heart administered intravenously and measured at 30 mins postinjection by gamma counter analysis; assay type: ADME, organism-based; conditions: in vivo, iv, 0.5 h
[18] = Biodistribution in male ddY mouse pancreas administered intravenously and measured at 2 mins postinjection by gamma counter analysis; assay type: ADME, organism-based; conditions: in vivo, iv
[19] = Biodistribution in male ddY mouse brain administered intravenously and measured at 30 mins postinjection by gamma counter analysis; assay type: ADME, organism-based; conditions: in vivo, iv, 0.5 h
[20] = Biodistribution in male ddY mouse bone administered intravenously and measured at 60 mins postinjection by gamma counter analysis; assay type: ADME, organism-based, Bone element; conditions: in vivo, iv, 1 h
[21] = Biodistribution in male ddY mouse intestine administered intravenously and measured at 10 mins postinjection by gamma counter analysis; assay type: ADME, organism-based; conditions: in vivo, iv
[22] = Biodistribution in male ddY mouse stomach administered intravenously and measured per organ at 60 mins postinjection by gamma counter analysis; assay type: ADME, organism-based; conditions: in vivo, iv, 1 h
[23] = Biodistribution in male ddY mouse blood administered intravenously and measured at 60 mins postinjection by gamma counter analysis; assay type: ADME, organism-based; conditions: in vivo, iv, 1 h
[24] = Biodistribution in male ddY mouse bone administered intravenously and measured at 10 mins postinjection by gamma counter analysis; assay type: ADME, organism-based, Bone element; conditions: in vivo, iv
[25] = Biodistribution in male ddY mouse lung administered intravenously and measured at 2 mins postinjection by gamma counter analysis; assay type: ADME, organism-based; conditions: in vivo, iv
[26] = Biodistribution in male ddY mouse spleen administered intravenously and measured at 30 mins postinjection by gamma counter analysis; assay type: ADME, organism-based; conditions: in vivo, iv, 0.5 h
[27] = Biodistribution in male ddY mouse lung administered intravenously and measured at 10 mins postinjection by gamma counter analysis; assay type: ADME, organism-based; conditions: in vivo, iv
[28] = Biodistribution in male ddY mouse intestine administered intravenously and measured at 2 mins postinjection by gamma counter analysis; assay type: ADME, organism-based; conditions: in vivo, iv
[29] = Biodistribution in male ddY mouse liver administered intravenously and measured at 30 mins postinjection by gamma counter analysis; assay type: ADME, organism-based; conditions: in vivo, iv, 0.5 h
[30] = Biodistribution in male ddY mouse stomach administered intravenously and measured per organ at 10 mins postinjection by gamma counter analysis; assay type: ADME, organism-based; conditions: in vivo, iv
[31] = Biodistribution in male ddY mouse spleen administered intravenously and measured at 60 mins postinjection by gamma counter analysis; assay type: ADME, organism-based; conditions: in vivo, iv, 1 h
[32] = Biodistribution in male ddY mouse intestine administered intravenously and measured at 60 mins postinjection by gamma counter analysis; assay type: ADME, organism-based; conditions: in vivo, iv, 1 h
[33] = Biodistribution in male ddY mouse stomach administered intravenously and measured per organ at 30 mins postinjection by gamma counter analysis; assay type: ADME, organism-based; conditions: in vivo, iv, 0.5 h
[34] = Biodistribution in male ddY mouse pancreas administered intravenously and measured at 60 mins postinjection by gamma counter analysis; assay type: ADME, organism-based; conditions: in vivo, iv, 1 h
[35] = Biodistribution in male ddY mouse kidney administered intravenously and measured at 10 mins postinjection by gamma counter analysis; assay type: ADME, organism-based; conditions: in vivo, iv
[36] = Biodistribution in male ddY mouse liver administered intravenously and measured at 2 mins postinjection by gamma counter analysis; assay type: ADME, organism-based; conditions: in vivo, iv
[37] = Biodistribution in male ddY mouse heart administered intravenously and measured at 10 mins postinjection by gamma counter analysis; assay type: ADME, organism-based; conditions: in vivo, iv
[38] = Biodistribution in male ddY mouse heart administered intravenously and measured at 2 mins postinjection by gamma counter analysis; assay type: ADME, organism-based; conditions: in vivo, iv
[39] = Biodistribution in male ddY mouse blood administered intravenously and measured at 10 mins postinjection by gamma counter analysis; assay type: ADME, organism-based; conditions: in vivo, iv
[40] = Biodistribution in male ddY mouse kidney administered intravenously and measured at 30 mins postinjection by gamma counter analysis; assay type: ADME, organism-based; conditions: in vivo, iv, 0.5 h
[41] = Biodistribution in male ddY mouse blood administered intravenously and measured at 30 mins postinjection by gamma counter analysis; assay type: ADME, organism-based; conditions: in vivo, iv, 0.5 h
[42] = Biodistribution in male ddY mouse spleen administered intravenously and measured at 2 mins postinjection by gamma counter analysis; assay type: ADME, organism-based; conditions: in vivo, iv
[43] = Biodistribution in male ddY mouse bone administered intravenously and measured at 2 mins postinjection by gamma counter analysis; assay type: ADME, organism-based, Bone element; conditions: in vivo, iv
[44] = Biodistribution in male ddY mouse intestine administered intravenously and measured at 30 mins postinjection by gamma counter analysis; assay type: ADME, organism-based; conditions: in vivo, iv, 0.5 h
[45] = Biodistribution in male ddY mouse blood administered intravenously and measured at 2 mins postinjection by gamma counter analysis; assay type: ADME, organism-based; conditions: in vivo, iv
[46] = Biodistribution in male ddY mouse brain administered intravenously and measured at 2 mins postinjection by gamma counter analysis; assay type: ADME, organism-based; conditions: in vivo, iv
[47] = Biodistribution in male ddY mouse kidney administered intravenously and measured at 60 mins postinjection by gamma counter analysis; assay type: ADME, organism-based; conditions: in vivo, iv, 1 h

Cc1ccc(-n2nccn2)c(C(=O)N2CCCN(c3nc4ccc(F)cc4o3)C[C@@H]2C)c1
pKi [1]: 6.81
pKi [2]: 7.75
Ratio Ki [3]: 8.8

C[C@H]1CN(c2nc3ccc(F)cc3s2)CCCN1C(=O)c1cc(F)ccc1-n1nccn1
pKi [1]: 7.81
pKi [2]: 8.72
Ratio Ki [3]: 8.19

Cc1ccc2nc(N3CCCN(C(=O)c4cc(F)ccc4-n4nccn4)[C@@H](C)C3)sc2c1
pKi [1]: 7.58
pKi [2]: 8.13
Ratio Ki [3]: 3.5

C[C@H]1CN(c2nc3ccc(F)cc3s2)CCCN1C(=O)c1cc([18F])ccc1-n1nccn1
Drug uptake [4]: 12.6 % ID/g
Drug uptake [5]: 1.03 %ID
Drug uptake [6]: 0.42 % ID/g
Drug uptake [7]: 0.61 % ID/g
Drug uptake [8]: 1.11 % ID/g
Drug uptake [9]: 1.33 % ID/g
Drug uptake [10]: 27.5 % ID/g
Drug uptake [11]: 0.56 % ID/g
Drug uptake [12]: 0.09 % ID/g
Drug uptake [13]: 0.76 % ID/g
Drug uptake [14]: 2.88 % ID/g
Drug uptake [15]: 1.77 % ID/g
Drug uptake [16]: 7.83 % ID/g
Drug uptake [17]: 0.67 % ID/g
Drug uptake [18]: 5.3 % ID/g
Drug uptake [19]: 0.29 % ID/g
Drug uptake [20]: 1.24 % ID/g
Drug uptake [21]: 8.38 % ID/g
Drug uptake [22]: 2.13 %ID
Drug uptake [23]: 0.55 % ID/g
Drug uptake [24]: 1.18 % ID/g
Drug uptake [25]: 6 % ID/g
Drug uptake [26]: 0.42 % ID/g
Drug uptake [27]: 3.39 % ID/g
Drug uptake [28]: 2.93 % ID/g
Drug uptake [29]: 20.4 % ID/g
Drug uptake [30]: 0.98 %ID
Drug uptake [31]: 0.21 % ID/g
Drug uptake [32]: 30.5 % ID/g
Drug uptake [33]: 1.18 %ID
Drug uptake [34]: 0.36 % ID/g
Drug uptake [35]: 4.37 % ID/g
Drug uptake [36]: 11.5 % ID/g
Drug uptake [37]: 2.48 % ID/g
Drug uptake [38]: 6.04 % ID/g
Drug uptake [39]: 3.05 % ID/g
Drug uptake [40]: 2.32 % ID/g
Drug uptake [41]: 1.1 % ID/g
Drug uptake [42]: 2.15 % ID/g
Drug uptake [43]: 1.5 % ID/g
Drug uptake [44]: 15.4 % ID/g
Drug uptake [45]: 4.79 % ID/g
Drug uptake [46]: 2.64 % ID/g
Drug uptake [47]: 0.88 % ID/g

Cc1ccc(-n2nccn2)c(C(=O)N2CCCN(c3nc4cc(F)ccc4o3)C[C@@H]2C)c1
pKi [1]: 8.06
pKi [2]: 8.63
Ratio Ki [3]: 3.68
